Assay results as given in patent US20150289518A1, “COMPOSITION COMPRISING A BIOLOGICAL CONTROL AGENT AND AN INSECTICIDE” (BAYER CROPSCIENCE AG, priority 2012, published 2015).

Tests used:
Format in all cases: in vivo
[1] = tested on: mustard beetle larvae (Phaedon cochleariae); test: Phaedon cochleariae spray test; details: mortality, Chinese cabbage leaf disks sprayed
Description: (§1) Formula for the efficacy of the combination of two compounds • The expected efficacy of a given combination of two compounds is calculated as follows (see Colby, S. R., “Calculating Synergistic and antagonistic Responses of Herbicide Combinations”, Weeds 15, pp. 20-22, 1967):
(§2) • X is the efficacy expressed in % mortality of the untreated control for test compound A at a concentration of m ppm respectively m g/ha, • Y is the efficacy expressed in % mortality of the untreated control for test compound B at a concentration of n ppm respectively n g/ha, • E is the efficacy expressed in % mortality of the untreated control using the mixture of A and B at m and n ppm respectively m and n g/ha,
(§3) If the observed insecticidal efficacy of the combination is higher than the one calculated as “E”, then the combination of the two compounds is more than additive, i.e., there is a synergistic effect.
• Solvent: 78.0 parts by weight of acetone • 1.5 parts by weight of dimethylformamide • Emulsifier: alkylaryl polyglycol ether […]
(§4) After the specified period of time, mortality in % is determined. […] The mortality values determined thus are recalculated using the Colby-formula (see sheet 1).

[2] = tested on: green peach aphid (Myzus persicae); test: Myzus persicae spray test; details: mortality
Description: as §1, §2, §3
• Solvent: 78.0 parts by weight acetone • 1.5 parts by weight dimethylformamide • Emulsifier: alkylaryl polyglycol ether […]
as §4

[3] = tested on: southern root-knot nematode (Meloidogyne incognita); test: Meloidogyne incognita test (MELGIN); details: nematicidal activity by gall formation on salad roots, 0.08 ppm
Description: as §1, §2, §3
• Solvent: 125.0 parts by weight of acetone
To produce a suitable preparation of active compound, 1 part by weight of active compound is mixed with the stated amount of solvent, and the concentrate is diluted with water to the desired concentration. […]
After the specified period the nematicidal activity is determined on the basis of the percentage of gall formation. […] The values determined thus are recalculated using the Colby-formula (see sheet 1).

Row | Compound | Efficacy in % after 6d ([1]; 0.8 g ai/ha) | Efficacy in % after 6d ([2]; 0.8 g ai/ha, test 2, 6 d) | Efficacy in % after 1d ([2]; 4 g ai/ha, test 1, 1 d) | Efficacy in % after 6d ([1]; 0.2 g ai/ha) | Efficacy in % after 14d [3]
1 | N#Cc1nn(-c2c(Cl)cc(C(F)(F)F)cc2Cl)c(N)c1[S+]([O-])C(F)(F)F (centres unmarked) [Fipronil] | 0% | 0% | 0% |  | 
2 | Abamectin |  |  |  | 0% | 0%
